The source of these data is patent publication US9586951B2 (FUJIFILM Corporation, priority 2013, dated 2017).

The target in one experiment is T1, ATM (Homo sapiens, UniProt Q13315).
T1 construct: detecting phosphorylation of Chk2 in a human non-small cell lung cancer cell line NCI-H460 (ATCC company); host or cells: NCI-H460 human non-small cell lung cancer cells
The experiment can be described thus: ATM inhibition test (phosphorylation of Chk2 generated by ionizing radiation, AlphaScreen SureFire). Type of experiment: cell-based. To be noted: phosphorylated Chk2 in NCI-H460 cells, ionizing radiation 8Gy, 1 hour after test compound treatment; read-out: ATM inhibitory activity. The procedure, abridged: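 Human NCI-H460 lung cancer cells were treated with compound for 1 h, then irradiated at 8Gy and incubated 1 h at 37° C. Phospho-Chk2 was quantified by AlphaScreen SureFire; inhibition % was normalised between irradiated untreated and non-irradiated untreated wells.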

Experiment [1] deals with human non-small cell lung cancer cell line NCI-H460. The experiment can be described thus: Cell proliferation inhibition test by sensitivity-enhancing to ionizing radiation (Cell Titer Glo). Type of experiment: cell-based. To be noted: concentration in which SER became 2, NCI-H460 cells, ionizing radiation 2 Gy, cultured 120 hour. The procedure, abridged:
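Cells seeded at 2×10^3 cells/mL in RPMI-1640 with 10% FBS; after 24 h, compound added (0.1% DMSO), and 30 min later half the plates irradiated at 2 Gy. After 120 hour at 37° C, viability by Cell Titer Glo luminescence; SER2 is the concentration giving SER of 2 by sigmoidal fit.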
On the technique in general: ATP-based viability assays read luminescence as a measure of living cells.

T1 sequence (Q13315 whole entry): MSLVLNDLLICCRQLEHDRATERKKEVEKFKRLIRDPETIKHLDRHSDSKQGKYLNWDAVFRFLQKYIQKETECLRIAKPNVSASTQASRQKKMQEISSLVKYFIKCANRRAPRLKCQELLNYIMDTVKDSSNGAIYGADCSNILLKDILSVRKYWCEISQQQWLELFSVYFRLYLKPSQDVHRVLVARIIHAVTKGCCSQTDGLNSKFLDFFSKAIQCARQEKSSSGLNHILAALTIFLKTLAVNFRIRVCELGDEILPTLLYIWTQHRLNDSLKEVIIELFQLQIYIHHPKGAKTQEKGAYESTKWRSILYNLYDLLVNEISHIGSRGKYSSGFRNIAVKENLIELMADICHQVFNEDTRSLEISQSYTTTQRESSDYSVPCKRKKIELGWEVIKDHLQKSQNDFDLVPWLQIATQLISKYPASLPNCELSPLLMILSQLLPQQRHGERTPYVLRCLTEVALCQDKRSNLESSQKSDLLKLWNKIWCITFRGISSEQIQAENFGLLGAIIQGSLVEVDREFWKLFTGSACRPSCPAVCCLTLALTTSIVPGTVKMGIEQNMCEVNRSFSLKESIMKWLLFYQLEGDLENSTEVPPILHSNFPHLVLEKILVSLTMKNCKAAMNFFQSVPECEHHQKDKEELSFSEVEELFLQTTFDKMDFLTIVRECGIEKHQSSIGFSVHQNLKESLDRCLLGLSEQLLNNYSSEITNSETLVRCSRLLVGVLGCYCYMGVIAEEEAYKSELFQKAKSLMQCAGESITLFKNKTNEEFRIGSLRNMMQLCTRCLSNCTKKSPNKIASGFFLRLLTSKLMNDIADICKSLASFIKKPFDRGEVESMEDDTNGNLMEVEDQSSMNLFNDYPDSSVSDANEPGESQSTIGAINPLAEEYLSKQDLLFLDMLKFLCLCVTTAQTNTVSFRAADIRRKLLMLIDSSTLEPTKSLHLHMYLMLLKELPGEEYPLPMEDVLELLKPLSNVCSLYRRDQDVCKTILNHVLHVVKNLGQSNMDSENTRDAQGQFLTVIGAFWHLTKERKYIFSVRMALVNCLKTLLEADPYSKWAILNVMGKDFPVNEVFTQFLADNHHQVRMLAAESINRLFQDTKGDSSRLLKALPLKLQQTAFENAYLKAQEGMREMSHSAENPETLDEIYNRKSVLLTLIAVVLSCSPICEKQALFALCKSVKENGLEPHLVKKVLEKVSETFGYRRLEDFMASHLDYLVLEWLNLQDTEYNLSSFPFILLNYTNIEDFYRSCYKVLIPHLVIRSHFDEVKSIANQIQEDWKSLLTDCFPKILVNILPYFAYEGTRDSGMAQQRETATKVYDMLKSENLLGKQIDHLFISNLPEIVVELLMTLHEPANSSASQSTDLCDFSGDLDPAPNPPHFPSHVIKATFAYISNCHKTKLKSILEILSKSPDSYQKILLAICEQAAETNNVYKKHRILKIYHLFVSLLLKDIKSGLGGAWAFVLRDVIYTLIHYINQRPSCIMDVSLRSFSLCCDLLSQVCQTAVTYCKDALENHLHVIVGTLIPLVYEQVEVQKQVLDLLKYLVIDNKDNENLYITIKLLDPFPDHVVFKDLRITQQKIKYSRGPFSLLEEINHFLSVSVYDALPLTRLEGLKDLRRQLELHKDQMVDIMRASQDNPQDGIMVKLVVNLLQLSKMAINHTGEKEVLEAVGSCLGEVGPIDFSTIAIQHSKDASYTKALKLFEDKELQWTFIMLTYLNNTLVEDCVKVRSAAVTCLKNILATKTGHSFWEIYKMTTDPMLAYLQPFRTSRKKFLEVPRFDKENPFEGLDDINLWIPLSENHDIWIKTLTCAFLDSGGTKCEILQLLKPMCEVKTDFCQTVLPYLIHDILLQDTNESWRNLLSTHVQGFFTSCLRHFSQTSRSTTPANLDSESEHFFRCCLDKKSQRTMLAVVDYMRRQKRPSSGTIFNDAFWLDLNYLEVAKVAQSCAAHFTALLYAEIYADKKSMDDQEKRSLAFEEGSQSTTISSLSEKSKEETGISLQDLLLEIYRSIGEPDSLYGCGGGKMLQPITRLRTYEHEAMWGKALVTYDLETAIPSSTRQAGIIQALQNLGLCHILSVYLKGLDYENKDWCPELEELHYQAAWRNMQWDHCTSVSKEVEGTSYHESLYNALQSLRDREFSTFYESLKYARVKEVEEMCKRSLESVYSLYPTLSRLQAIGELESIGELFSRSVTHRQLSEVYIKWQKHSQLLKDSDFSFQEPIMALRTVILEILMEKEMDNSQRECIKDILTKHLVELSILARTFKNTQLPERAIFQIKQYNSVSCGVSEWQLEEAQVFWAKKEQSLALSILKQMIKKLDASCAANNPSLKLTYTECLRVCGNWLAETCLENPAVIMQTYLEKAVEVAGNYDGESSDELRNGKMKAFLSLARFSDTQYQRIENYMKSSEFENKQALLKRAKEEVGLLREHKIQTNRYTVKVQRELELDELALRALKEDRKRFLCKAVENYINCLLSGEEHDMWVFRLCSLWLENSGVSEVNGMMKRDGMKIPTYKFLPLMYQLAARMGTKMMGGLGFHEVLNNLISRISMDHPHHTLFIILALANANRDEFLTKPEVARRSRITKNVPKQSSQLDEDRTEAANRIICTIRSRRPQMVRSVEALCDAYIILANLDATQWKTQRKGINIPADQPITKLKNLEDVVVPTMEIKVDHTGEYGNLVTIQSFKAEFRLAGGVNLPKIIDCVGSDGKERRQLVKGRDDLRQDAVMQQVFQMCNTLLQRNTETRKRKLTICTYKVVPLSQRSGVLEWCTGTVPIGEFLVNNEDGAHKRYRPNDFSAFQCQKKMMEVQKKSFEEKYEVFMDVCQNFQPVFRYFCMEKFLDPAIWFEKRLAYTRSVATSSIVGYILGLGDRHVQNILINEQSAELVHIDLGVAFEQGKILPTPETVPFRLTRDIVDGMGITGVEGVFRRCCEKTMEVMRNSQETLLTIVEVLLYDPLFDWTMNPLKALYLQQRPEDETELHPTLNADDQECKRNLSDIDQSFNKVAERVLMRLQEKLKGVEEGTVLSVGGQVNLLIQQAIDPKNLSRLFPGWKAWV

As to `CC(CN1CCOCC1)Nc1ccc2c(c1)Sc1cccc(-c3cc(N4CCOCC4)cc(=O)[nH]3)c1S2` (racemic) [Example 1-13-2-1, 4-Morpholino-6-(7-((1-morpholinopropan-2-yl)amino)thianthren-1-yl)pyridin-2(1H)-one], at ATM, the IC50 is < 100 nM. In experiment [1] (Homo sapiens, NCI-H460, 120 h), the SER2 (concentration at which the radiation sensitivity-enhancement ratio reaches 2) is 100 to 500 nM.

For `COC(C)(C)c1cncc(CNc2ccc3c(c2)Cc2cccc(-c4cc(N5CCOCC5)cc(=O)[nH]4)c2O3)c1` [Example 2-14-12, 6-(7-(((5-(2-Methoxypropan-2-yl)pyridin-3-yl)methyl)amino)-9H-xanthen-4-yl)-4-morpholino pyridin-2 (1H)-one], on ATM, the IC50 was < 100 nM. Moreover, in experiment [1] (Homo sapiens, NCI-H460, 120 h), the SER2 (concentration at which the radiation sensitivity-enhancement ratio reaches 2) fell in the range of 100 to 500 nM.

Take `O=c1cc(N2CCOCC2)cc(-c2cccc3c2Sc2ccc(NCc4cccc(Cl)n4)cc2S3)[nH]1` [Example 1-12-6, 6-(7-(((6-Chloropyridin-2-yl)methyl)amino)thianthren-1-yl)-4-morpholino pyridin-2 (1H)-one]: the IC50 at ATM was < 100 nM. Moreover, in experiment [1] (Homo sapiens, NCI-H460, 120 h), the SER2 (concentration at which the radiation sensitivity-enhancement ratio reaches 2) lay in the range of 100 to 500 nM.

As for `COCC(Nc1ccc2c(c1)Sc1cccc(-c3cc(N4CCOCC4)cc(=O)[nH]3)c1S2)c1ncc(C)cn1` (stereo not drawn) [Example 1-12-96, 6-(7-((2-Methoxy-1-(5-methylpyrimidin-2-yl)ethyl)amino)thianthren-1-yl)-4-morpholino pyridin-2(1H)-one], on ATM, the IC50 is < 100 nM. In addition, the SER2 (concentration at which the radiation sensitivity-enhancement ratio reaches 2) in experiment [1] (Homo sapiens, NCI-H460, 120 h) was 100 to 500 nM.

Consider `CC(Nc1ccc2c(c1)Sc1cccc(-c3cc(N4CCOCC4)cc(=O)[nH]3)c1S2)c1nccc(C(F)F)n1` (stereo not drawn) [Example 1-12-87, 6-(7-((1-(4-(Difluoromethyl)pyrimidin-2-yl)ethyl)amino)thianthren-1-yl)-4-morpholino pyridin-2(1H)-one], for which the IC50 on ATM was < 100 nM. Besides, the SER2 (concentration at which the radiation sensitivity-enhancement ratio reaches 2) in experiment [1] (Homo sapiens, NCI-H460, 120 h) was 100 to 500 nM.

`C=C(C)c1cncc(CNc2ccc3c(c2)Cc2cccc(-c4cc(N5CCOCC5)cc(=O)[nH]4)c2O3)c1` [Example 2-14-10, 4-Morpholino-6-(7-(((5-(prop-1-en-2-yl)pyridin-3-yl)methyl)amino)-9H-xanthen-4-yl)pyridin-2 (1H)-one]: the IC50 on ATM was < 100 nM. Also, in experiment [1] (Homo sapiens, NCI-H460, 120 h), the SER2 (concentration at which the radiation sensitivity-enhancement ratio reaches 2) lay in the range of 100 to 500 nM.

Consider `Cc1cnc(C(C)Nc2ccc3c(c2)Sc2cccc(-c4cc(N5CCOCC5)cc(=O)[nH]4)c2S3)nc1` (single isomer, unassigned) [Example 1-12-139-1, 6-(7-((1-(5-methylpyrimidin-2-yl)ethyl)amino)thianthren-1-yl)-4-morpholinopyridin-2(1H)-one], for which, at ATM, the IC50 is < 100 nM. Further, the SER2 (concentration at which the radiation sensitivity-enhancement ratio reaches 2) in experiment [1] (Homo sapiens, NCI-H460, 120 h) is < 100 nM.

As for `COC[C@H](CN1C[C@@H](C)O[C@@H](C)C1)Nc1ccc2c(c1)Sc1cccc(-c3cc(N4CCOCC4)cc(=O)[nH]3)c1S2` [Example 1-46-11, 6-(7-(((S)-1-((2S,6R)-2,6- Dimethylmorpholino)-3-methoxypropan-2-yl)amino)thianthren-1-yl)-4-morpholino pyridin-2(1H)-one], the IC50 at ATM was < 100 nM. Moreover, the SER2 (concentration at which the radiation sensitivity-enhancement ratio reaches 2) in experiment [1] (Homo sapiens, NCI-H460, 120 h) was < 100 nM.

With `O=c1cc(N2CCOCC2)cc(-c2nccc3c2Oc2ccc(NCc4cc(Cl)ccn4)cc2C3)[nH]1` [Example 2-41-3, 6-(7-(((4-Chloropyridin-2-yl)methyl)amino)-5H-chromeno [2,3-c]pyridin-1-yl)-4-morpholino pyridin-2(1H)-one], on ATM, the IC50 is < 100 nM. In addition, the SER2 (concentration at which the radiation sensitivity-enhancement ratio reaches 2) in experiment [1] (Homo sapiens, NCI-H460, 120 h) is 100 to 500 nM.

For `N#Cc1ccnc(CNc2ccc3c(c2)Sc2cccc(-c4cc(N5CCOCC5)cc(=O)[nH]4)c2S3)c1` [Example 1-12-28, 2-(((6-(4-Morpholino-6-oxo-1,6-dihydro-pyridin-2-yl)thianthren-2-yl)amino)methyl) isonicotinonitrile], the IC50 at ATM was < 100 nM. Besides, the SER2 (concentration at which the radiation sensitivity-enhancement ratio reaches 2) in experiment [1] (Homo sapiens, NCI-H460, 120 h) lay within 100 to 500 nM.

Consider `O=c1cc(N2CCOCC2)cc(-c2cccc3c2Oc2ccc(NCc4cc(Cl)ccn4)cc2C3)[nH]1` [Example 2-2-64, 6-(7-(((4-Chloropyridin-2-yl)methyl)amino)-9H-xanthen-4-yl)-4-morpholino pyridin-2(1H)-one], for which the IC50 at ATM is < 100 nM. Further, the SER2 (concentration at which the radiation sensitivity-enhancement ratio reaches 2) in experiment [1] (Homo sapiens, NCI-H460, 120 h) is 100 to 500 nM.

For `CC(CN1CCCCC1)Nc1ccc2c(c1)Sc1cccc(-c3cc(N4CCOCC4)cc(=O)[nH]3)c1S2` (stereo not drawn) [Example 1-13-4], on ATM, the IC50 is < 100 nM. Further, in experiment [1] (Homo sapiens, NCI-H460, 120 h), the SER2 (concentration at which the radiation sensitivity-enhancement ratio reaches 2) fell in the range of 100 to 500 nM.

On to `CN1CCC(Nc2ccc3c(c2)Sc2cccc(-c4cc(N5CCOCC5)cc(=O)[nH]4)c2S3)CC1` [Example 1-44-5, 6-(7-((1-Methylpiperidin-4-yl)amino)thianthren-1-yl)-4-morpholino pyridin-2(1H)-one], for which the IC50 on ATM was < 100 nM. Besides, the SER2 (concentration at which the radiation sensitivity-enhancement ratio reaches 2) in experiment [1] (Homo sapiens, NCI-H460, 120 h) is 500 to 2000 nM.

`COc1cccc(CNc2ccc3c(c2)Sc2cccc(-c4cc(N5CCOCC5)cc(=O)[nH]4)c2O3)n1` [Example 4-8-18, 6-(8-(((6-Methoxypyridin-2-yl)methyl)amino)phenoxathiin-4-yl)-4-morpholino pyridin-2 (1H)-one]: at ATM, the IC50 was < 100 nM. The SER2 (concentration at which the radiation sensitivity-enhancement ratio reaches 2) in experiment [1] (Homo sapiens, NCI-H460, 120 h) is 100 to 500 nM.

With `CNc1ncc(CNc2ccc3c(c2)Sc2cccc(-c4cc(N5CCOCC5)cc(=O)[nH]4)c2S3)cn1` [Example 1-12-46, 6-(7-(((2-(Methylamino)pyrimidin-5-yl)methyl)amino)thianthren-1-yl)-4-morpholino pyridin-2(1H)-one], the IC50 on ATM is < 100 nM. The SER2 (concentration at which the radiation sensitivity-enhancement ratio reaches 2) in experiment [1] (Homo sapiens, NCI-H460, 120 h) was 100 to 500 nM.

For the compound `Cc1ccnc(C(CO)Nc2ccc3c(c2)Sc2cccc(-c4cc(N5CCOCC5)cc(=O)[nH]4)c2S3)c1` (single isomer, unassigned) [Example 1-12-138-2, 6-(7-((2-hydroxy-1-(4-methylpyridin-2-yl)ethyl)amino)thianthren-1-yl)-4-morpholinopyridin-2(1H)-one], the IC50 at ATM is < 100 nM. Further, the SER2 (concentration at which the radiation sensitivity-enhancement ratio reaches 2) in experiment [1] (Homo sapiens, NCI-H460, 120 h) is < 100 nM.

Consider `Cc1ccc(C(Nc2ccc3c(c2)Sc2cccc(-c4cc(N5CCOCC5)cc(=O)[nH]4)c2S3)C2CC(N(C)C)C2)nc1` (single isomer, unassigned) [Example 1-50-8, 6-(7-(((3-(Dimethylamino)cyclobutyl)(5-methylpyridin-2-yl)methyl)amino)thianthren-1-yl)-4-morpholino pyridin-2(1H)-one], for which the IC50 on ATM was < 100 nM. Moreover, the SER2 (concentration at which the radiation sensitivity-enhancement ratio reaches 2) in experiment [1] (Homo sapiens, NCI-H460, 120 h) is < 100 nM.

As to `Cc1ccc(C(Nc2ccc3c(c2)Sc2cccc(-c4cc(N5CCOCC5)cc(=O)[nH]4)c2S3)C2CC(N(C)C)C2)nc1` (single isomer, unassigned) [Example 1-50-9, 6-(7-(((3-(Dimethylamino)cyclobutyl)(5-methylpyridin-2-yl)methyl)amino)thianthren-1-yl)-4-morpholino pyridin-2 (1H)-one], the IC50 at ATM is < 100 nM. Also, the SER2 (concentration at which the radiation sensitivity-enhancement ratio reaches 2) in experiment [1] is < 100 nM.

As to `O=c1cc(N2CCOCC2)cc(-c2cccc3c2Oc2ccc(NCc4cncc(F)c4)cc2S3)[nH]1` [Example 4-8-12, 6-(8-(((5-Fluoropyridin-3-yl)methyl)amino)phenoxathiin-4-yl)-4-morpholino pyridin-2(1H)-one], at ATM, the IC50 is < 100 nM. Moreover, the SER2 (concentration at which the radiation sensitivity-enhancement ratio reaches 2) in experiment [1] (Homo sapiens, NCI-H460, 120 h) lay in the range of 100 to 500 nM.

`Cc1ccc(CNc2ccc3c(c2)Sc2cccc(-c4cc(N5CCOCC5)cc(=O)[nH]4)c2O3)nc1` [Example 4-8-13, 6-(8-(((5-Methylpyridin-2-yl)methyl)amino)phenoxathiin-4-yl)-4-morpholino pyridin-2(1H)-one]: at ATM, the IC50 was < 100 nM. Besides, in experiment [1] (Homo sapiens, NCI-H460, 120 h), the SER2 (concentration at which the radiation sensitivity-enhancement ratio reaches 2) fell in the range of 100 to 500 nM.

Regarding `Cc1ccnc(CNc2ccc3c(c2)Cc2ccc(F)c(-c4cc(N5CCOCC5)cc(=O)[nH]4)c2O3)c1` [Example 2-46-5, 6-(3-Fluoro-7-(((4-methylpyridin-2-yl)methyl)amino)-9H-xanthen-4-yl)-4-morpholinopyridin-2(1H)-one], the IC50 on ATM was < 100 nM. Further, the SER2 (concentration at which the radiation sensitivity-enhancement ratio reaches 2) in experiment [1] (Homo sapiens, NCI-H460, 120 h) was in the range of 100 to 500 nM.

In the case of `Cc1nccc(C(C)Nc2ccc3c(c2)Sc2cccc(-c4cc(N5CCOCC5)cc(=O)[nH]4)c2S3)n1` (single isomer, unassigned) [Example 1-12-141-1, 6-(7-((1-(2-methylpyrimidin-4-yl)ethyl)amino)thianthren-1-yl)-4-morpholinopyridin-2(1H)-one], the IC50 at ATM is < 100 nM. Moreover, the SER2 (concentration at which the radiation sensitivity-enhancement ratio reaches 2) in experiment [1] (Homo sapiens, NCI-H460, 120 h) fell in the range of 100 to 500 nM.

Consider `Cc1ccnc(C(C)Nc2ccc3c(c2)Sc2cccc(-c4cc(N5CCOCC5)cc(=O)[nH]4)c2S3)n1` (stereo not drawn) [Example 1-12-69, 6-(7-((1-(4-Methylpyrimidin-2-yl)ethyl)amino)thianthren-1-yl)-4-morpholino pyridin-2(1H)-one], for which the IC50 at ATM is < 100 nM. Moreover, in experiment [1] (Homo sapiens, NCI-H460, 120 h), the SER2 (concentration at which the radiation sensitivity-enhancement ratio reaches 2) is < 100 nM.

Regarding `Cc1cnc(C(C)Nc2ccc3c(c2)Sc2cccc(-c4cc(N5CCOCC5)cc(=O)[nH]4)c2S3)nc1` (single isomer, unassigned) [Example 1-12-139-2, 6-(7-((1-(5-methylpyrimidin-2-yl)ethyl)amino)thianthren-1-yl)-4-morpholinopyridin-2(1H)-one], on ATM, the IC50 is < 100 nM. Besides, the SER2 (concentration at which the radiation sensitivity-enhancement ratio reaches 2) in experiment [1] was 100 to 500 nM.
